Test results taken from patent US6040149A, “Assay for identifying agents which act on the ceramide-activated protein kinase, kinase suppressor of ras, and methods of using said agents” (priority 1997, dated 2000).

Key:
KSR [1] = target: T1, KSR (Mus musculus, UniProt Q61097); assay: Phosphorylation and activation of recombinant Raf-1 by KSR immunoprecipitated from treated COS-7 cells; type: cell-based, mouse (KSR expressed in COS-7 cells); settings: C2-ceramide 1 μM; TNFα 10 nM
T1 sequence (Q61097 1-873): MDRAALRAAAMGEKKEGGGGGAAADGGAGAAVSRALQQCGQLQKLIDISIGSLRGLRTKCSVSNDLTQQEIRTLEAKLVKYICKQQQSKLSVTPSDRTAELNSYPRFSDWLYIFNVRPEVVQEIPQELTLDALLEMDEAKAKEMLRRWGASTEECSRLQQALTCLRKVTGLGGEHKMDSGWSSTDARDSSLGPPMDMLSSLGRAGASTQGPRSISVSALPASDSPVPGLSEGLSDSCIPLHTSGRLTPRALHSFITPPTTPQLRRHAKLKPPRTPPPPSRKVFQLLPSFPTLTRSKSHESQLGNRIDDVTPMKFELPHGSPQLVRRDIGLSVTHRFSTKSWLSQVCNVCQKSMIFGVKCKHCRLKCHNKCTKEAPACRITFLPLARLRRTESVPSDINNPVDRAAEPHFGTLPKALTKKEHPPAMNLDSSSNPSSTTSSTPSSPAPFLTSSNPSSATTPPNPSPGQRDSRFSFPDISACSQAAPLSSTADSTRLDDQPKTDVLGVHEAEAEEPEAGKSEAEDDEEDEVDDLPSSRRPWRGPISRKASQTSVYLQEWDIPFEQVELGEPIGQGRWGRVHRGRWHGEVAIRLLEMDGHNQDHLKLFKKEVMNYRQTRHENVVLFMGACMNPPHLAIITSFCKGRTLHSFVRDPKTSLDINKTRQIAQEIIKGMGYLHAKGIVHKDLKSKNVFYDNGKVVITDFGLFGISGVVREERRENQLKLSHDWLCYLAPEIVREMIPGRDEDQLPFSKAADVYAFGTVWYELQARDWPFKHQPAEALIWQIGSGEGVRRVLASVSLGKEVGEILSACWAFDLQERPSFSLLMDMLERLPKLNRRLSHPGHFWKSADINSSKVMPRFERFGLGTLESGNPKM
Protocol: FIGS. 23B-23C--COS-7 cells expressing Flag-tagged KSR were stimulated with 1 μM C2-ceramide for 10 min and lysed with NP-40 buffer as in FIG. 23A. […] The autoradiogram was exposed for 1 hour. Data represent one of three experiments.
(§1) COS-7 cells expressing Flag-tagged KSR were stimulated with 10 nM TNFα for the times indicated and lysed with NP-40 buffer as in FIG. 2A. […] The autoradiogram was exposed for 1 hour. Data represent one of three similar experiments.
Immunoprecipitated KSR was incubated with reaction buffer A containing 0.5 mM ATP and a protein kinase inhibitor cocktail [20 μM PKC inhibitor peptide (UBI), 2 μM protein kinase A inhibitor peptide (UBI) and 20 μM R24571 (Sigma)] for 30 min at 22° C.

KSR/Raf-1 complex = assay: Co-immunoprecipitation of KSR and Raf-1 from treated COS-7 cells; type: cell-based, mouse KSR (COS-7 cells)
Protocol: FIG. […] Cells were lysed with NP-40 buffer and subjected to 4 hr of immunoprecipitation with anti-Raf-1 antibody. Two controls, KSR and KSR with ceramide treatment, received protein A conjugated sepharose beads without anti-Raf-1 antibody. […] Data represent one of four similar experiments.
Cell lysates were subjected to immunoprecipitation with anti-Flag antibody. Immunoprecipitated samples were handled as in FIG. 24A except Western blot analysis was performed with anti-Raf-1 antibody. Data represent one of three similar experiments.
Anti-Raf-1 antibody conjugated beads were prepared by overnight incubation of 2 μl of anti-Raf-1 antibody (a kind gift of Dr. Debbie Morrison) with 5 mg of the protein A conjugated sepharose beads, followed by washing three times with NP-40 lysis buffer. […] Lysates (0.8 mg total protein) were then incubated for 4 hrs with anti-Raf-1 bound sepharose beads or anti-Flag conjugated agarose beads. The beads were washed vigorously 5 times, boiled in Laemmli sample buffer, and proteins were separated on 7.5% SDS-PAGE. After electrophoresis, the gel was transferred to PVDF membrane and probed with anti-Flag antibody or anti-Raf-1 antibody.

KSR [2] = target: T1, KSR; assay: KSR autophosphorylation after treatment of COS-7 cells expressing KSR; type: cell-based, mouse (KSR expressed in COS-7 cells)
Protocol: FIG. 23A--COS-7 cells were transfected as in FIG. 22A and placed in serum-free medium. After 4 hours, cells were stimulated for 10 min with the ceramide analog, C2-ceramide (Biomol), at the concentrations indicated. Cells were lysed with NP-40 lysis buffer, and Flag-tagged KSR (0.8 mg protein for each point) was immunoprecipitated and assayed for autophosphorylation activity as described in Experimental Procedures. The autoradiogram was exposed for 1 hour. KSR is expressed at similar levels in each sample as monitored by Western blot (data not shown). Data represent one of three similar experiments.
as §1
KSR was immunoprecipitated as above from 0.8 mg NP-40 lysate protein with 40 μl agarose-conjugated anti-Flag antibody at 4° C. for 4 hrs or overnight. […] The reaction was stopped by addition of Laemmli sample buffer. Samples were resolved by 7.5% sodium dodecyl sulfate-polyacrylamide gel electrophoresis (SDS-PAGE) and autoradiographed.

KSR [3] = target: T1, KSR; assay: KSR activity toward Raf-1 peptides in vitro; type: biochemical, mouse (KSR immunoprecipitated from COS-7 cells); parameters: Raf-1 peptides as substrate
Protocol: The wild type peptide contains eight potential phosphorylation sites (shown in bold). Substitution of alanines and glycines for serines and threonines generated one peptide (TTLP-peptide) containing only two potential phosphorylation sites (Thr^268,269) and another peptide (AALP-peptide) with no potential phosphorylation sites.
FIG. 28A--Flag-tagged KSR was immunoprecipitated from 0.2 mg COS-7 lysate, and assayed with TTLP- or AALP-peptides in the presence of 30 nM ceramide (Avanti) or diluent (DMSO). Background counts per minute (cpm) derived from samples incubated with the AALP-peptide which contains no phosphorylation sites were subtracted from all points. Background cpm always represented less than 25% of the untreated total.
FIG. 28B--Flag-tagged KSR immunoprecipitated from 0.2 mg COS-7 lysate was assayed with TTLP- or AALP-peptides in the presence of ceramide or diluent for 45 min as described in FIG. 7A.
FIG. 28C--Flag-tagged KSR was immunoprecipitated from 0.15 mg COS-7 lysate and assayed with TTLP- or AALP-peptides for 20 min in the presence of 30 nM of the indicated lipid second messengers as described in FIG. 28A (AA: arachidonic acid; LPA: lyso phosphatidic acid; PMA: phorbol 12-myristate 13-acetate; DAG: 1,2-diacylglycerol).
KSR-bound beads were incubated with reaction buffer B plus 10 mM MnCl2, 5 μM ATP and [γ-^32 P]ATP at 22° C. for the period of time indicated in the presence of 0.3 mM synthetic Raf-peptide or substrate peptides specific for other Ser/Thr protein kinases. […] (SEQ ID NO.3). Substitution of glycines and alanines for serines and threonines generated one peptide (termed TTLP-peptide) containing only two potential phosphorylation sites at Thr^268,269 (in bold), […] (SEQ ID NO. 24), and another peptide (termed AALP-peptide; SEQ ID No.6) with no potential phosphorylation sites, […] (SEQ ID No.25). The amino acid sequences of substrate peptides specific for other protein kinases (Joseph et al., 1993) are: […] (SEQ ID NO.26) (PKA); […] (SEQ ID NO.27) (S6 kinase); […] (SEQ ID NO.28)(CK II); […] (SEQ ID NO.29) (CaM kinase II); and […] (SEQ ID NO.30) (PKC). […] Substrate peptides for PKA and PKC were from Sigma (St. Louis, Mo.). The reaction was stopped by addition of a stop solution containing 0.5 M ATP in 90% formic acid. The beads were removed by centrifugation at 5000×g for 2 min and the supernatant was loaded on P81 Whatman filter paper. The filter was air dried and washed in 4 mM Na2 H2 P2 O7, 1 mM acetic acid for one hour. The filter was baked at 90° C. for 10 min and quantified by Cerenkov counting using a Beckman LS 5000TD scintillation counter. In some experiments, samples were separated by C18 reverse-phase chromatography on HPLC (Mathias et al., 1991) to verify the results of the filter assay. Virtually identical results were obtained with both methods.

CAP kinase = assay: Phosphorylation of Raf-1 peptides by CAP kinase; type: biochemical, bovine (brain)

**Q.** For `CCCCCCCCCCCCC/C=C/[C@@H](O)[C@H](CO)NC(C)=O` [C2-ceramide], which “activity of immunoprecipitated KSR to phosphorylate and activate Raf-1” value (KSR [1]) is on record?
**A.** markedly enhanced

**Q.** What about the “co-immunoprecipitation of KSR with Raf-1” value (KSR/Raf-1 complex; 50 μM C2-ceramide, anti-Raf-1 precipitation) of the same compound?
**A.** significantly enhanced

**Q.** What about the “co-immunoprecipitation of Raf-1 with KSR” value (KSR/Raf-1 complex; C2-ceramide, anti-Flag precipitation) of the same compound?
**A.** dramatically enhanced

**Q.** And the “concentration of maximal effect” value (KSR [2]; C2-ceramide)?
**A.** 40 µM

**Q.** What about the “lowest effective concentration (KSR activity)” value (KSR [2]; C2-ceramide) of the same compound?
**A.** 50 nM

**Q.** And the fold induction at 40 µM (KSR [2]; COS-7, 10 min, 40 μM C2-ceramide, read-out: maximal enhancement of KSR autophosphorylating activity)?
**A.** 5 to 10

**Q.** How did the “phosphorylation of peptide by KSR” value (KSR [3]) turn out when “RQRSTSTPNVHMVSTTLPVDSRMIE [wild type Raf-peptide]” was run?
**A.** phosphorylated to the same extent

**Q.** And the “phosphorylation of Raf-1 peptide by CAP kinase” value (CAP kinase)?
**A.** phosphorylated
